# Measurements taken from ChEMBL document CHEMBL1131152, “In vitro and in vivo activities of oligodeoxynucleotide-based thrombin inhibitors containing neutral formacetal linkages” (J Med Chem, 1998).
# Biological target: Prothrombin (Homo sapiens) (UniProt P00734)
# Assay: Relative prothrombin time was determined as the activity of the test ODN (oligodeoxynucleotide) relative to that of GS-522
row,Compound,Relative PT
1,Cc1cn([C@H]2C[C@H](OCOC[C@H]3O[C@@H](n4cnc5c(=O)[nH]c(=N)[nH]c54)C[C@@H]3OP(=O)(O)OC[C@H]3O[C@@H](n4cnc5c(=O)nc(N)[nH]c54)C[C@@H]3O)[C@@H](COP(=O)(O)O[C@H]3C[C@H](n4cc(C)c(=O)[nH]c4=O)O[C@@H]3COP(=O)(O)O[C@H]3C[C@H](n4cnc5c(=O)[nH]c(=N)[nH]c54)O[C@@H]3COP(=O)(O)O[C@H]3C[C@H](n4cnc5c(=O)nc(N)[nH]c54)O[C@@H]3COP(=O)(O)O[C@H]3C[C@H](n4cc(C)c(=O)[nH]c4=O)O[C@@H]3COP(=O)(O)O[C@H]3C[C@H](n4cnc5c(=O)nc(N)[nH]c54)O[C@@H]3COP(=O)(O)O[C@H]3C[C@H](n4cc(C)c(=O)[nH]c4=O)O[C@@H]3COP(=O)(O)O[C@H]3C[C@H](n4cnc5c(=O)[nH]c(=N)[nH]c54)O[C@@H]3COP(=O)(O)O[C@H]3C[C@H](n4cnc5c(=O)nc(N)[nH]c54)O[C@@H]3COP(=O)(O)O[C@H]3C[C@H](n4cc(C)c(=O)[nH]c4=O)O[C@@H]3COCO[C@H]3C[C@H](n4cc(C)c(=O)[nH]c4=O)O[C@@H]3COP(=O)(O)O[C@H]3C[C@H](n4cnc5c(=O)nc(N)[nH]c54)O[C@@H]3COP(=O)(O)O[C@H]3C[C@H](n4cnc5c(=O)nc(N)[nH]c54)O[C@@H]3COP(=O)(O)O)O2)c(=O)[nH]c1=O,0.6
2,Cc1cn([C@H]2C[C@H](OP(=O)(O)OC[C@H]3O[C@@H](n4cnc5c(=O)nc(N)[nH]c54)C[C@@H]3OCOC[C@H]3O[C@@H](n4cnc5c(=O)[nH]c(=N)[nH]c54)C[C@@H]3OP(=O)(O)OC[C@H]3O[C@@H](n4cc(C)c(=O)[nH]c4=O)C[C@@H]3OP(=O)(O)OC[C@H]3O[C@@H](n4cnc5c(O)nc(=N)[nH]c54)C[C@@H]3OP(=O)(O)OC[C@H]3O[C@@H](n4cc(C)c(=O)[nH]c4=O)C[C@@H]3OP(=O)(O)OC[C@H]3O[C@@H](n4cnc5c(=O)nc(N)[nH]c54)C[C@@H]3OP(=O)(O)OC[C@H]3O[C@@H](n4cnc5c(=O)[nH]c(=N)[nH]c54)C[C@@H]3OP(=O)(O)OC[C@H]3O[C@@H](n4cc(C)c(=O)[nH]c4=O)C[C@@H]3OP(=O)(O)OC[C@H]3O[C@@H](n4cc(C)c(=O)[nH]c4=O)C[C@@H]3OP(=O)(O)OC[C@H]3O[C@@H](n4cnc5c(=O)[nH]c(=N)[nH]c54)C[C@@H]3OP(=O)(O)OC[C@H]3O[C@@H](n4cnc5c(=O)nc(N)[nH]c54)C[C@@H]3O)[C@@H](COP(=O)(O)O[C@H]3C[C@H](n4cc(C)c(=O)[nH]c4=O)O[C@@H]3COP(=O)(O)O[C@H]3C[C@H](n4cnc5c(=O)nc(N)[nH]c54)O[C@@H]3COCO[C@H]3C[C@H](n4cnc5c(=O)[nH]c(=N)[nH]c54)O[C@@H]3COP(=O)(O)O)O2)c(=O)[nH]c1=O,0.6
3,Cc1cn([C@H]2C[C@H](OCOC[C@H]3O[C@@H](n4cnc5c(=O)nc(N)[nH]c54)C[C@@H]3OP(=O)(O)OC[C@H]3O[C@@H](n4cnc5c(=O)[nH]c(=N)[nH]c54)C[C@@H]3OP(=O)(O)OC[C@H]3O[C@@H](n4cc(C)c(=O)[nH]c4=O)C[C@@H]3OCOC[C@H]3O[C@@H](n4cnc5c(=O)[nH]c(=N)[nH]c54)C[C@@H]3OP(=O)(O)OC[C@H]3O[C@@H](n4cc(C)c(=O)[nH]c4=O)C[C@@H]3OP(=O)(O)OC[C@H]3O[C@@H](n4cnc5c(=O)nc(N)[nH]c54)C[C@@H]3OP(=O)(O)OC[C@H]3O[C@@H](n4cnc5c(=O)[nH]c(=N)[nH]c54)C[C@@H]3OP(=O)(O)OC[C@H]3O[C@@H](n4cc(C)c(=O)[nH]c4=O)C[C@@H]3OP(=O)(O)OC[C@H]3O[C@@H](n4cc(C)c(=O)[nH]c4=O)C[C@@H]3OP(=O)(O)OC[C@H]3O[C@@H](n4cnc5c(=O)[nH]c(=N)[nH]c54)C[C@@H]3OP(=O)(O)OC[C@H]3O[C@@H](n4cnc5c(=O)nc(N)[nH]c54)C[C@@H]3O)[C@@H](COP(=O)(O)O[C@H]3C[C@H](n4cc(C)c(=O)[nH]c4=O)O[C@@H]3COP(=O)(O)O[C@H]3C[C@H](n4cnc5c(=O)[nH]c(=N)[nH]c54)O[C@@H]3COP(=O)(O)O[C@H]3C[C@H](n4cnc5c(=O)[nH]c(=N)[nH]c54)O[C@@H]3COP(=O)(O)O)O2)c(=O)[nH]c1=O,0.3
4,Cc1cn([C@H]2C[C@H](OP(=O)(O)OC[C@H]3O[C@@H](n4cnc5c(=O)nc(N)[nH]c54)C[C@@H]3OP(=O)(O)OC[C@H]3O[C@@H](n4cnc5c(=O)[nH]c(=N)[nH]c54)C[C@@H]3OP(=O)(O)OC[C@H]3O[C@@H](n4cc(C)c(=O)[nH]c4=O)C[C@@H]3OP(=O)(O)OC[C@H]3O[C@@H](n4cnc5c(=O)nc(N)[nH]c54)C[C@@H]3OP(=O)(O)OC[C@H]3O[C@@H](n4cc(C)c(=O)[nH]c4=O)C[C@@H]3OP(=O)(O)OC[C@H]3O[C@@H](n4cnc5c(=O)nc(N)[nH]c54)C[C@@H]3OP(=O)(O)OC[C@H]3O[C@@H](n4cnc5c(=O)[nH]c(=N)[nH]c54)C[C@@H]3OP(=O)(O)OC[C@H]3O[C@@H](n4cc(C)c(=O)[nH]c4=O)C[C@@H]3OP(=O)(O)OC[C@H]3O[C@@H](n4cc(C)c(=O)[nH]c4=O)C[C@@H]3OP(=O)(O)OC[C@H]3O[C@@H](n4cnc5c(=O)[nH]c(=N)[nH]c54)C[C@@H]3OP(=O)(O)OC[C@H]3O[C@@H](n4cnc5c(=O)nc(N)[nH]c54)C[C@@H]3O)[C@@H](COP(=O)(O)O[C@H]3C[C@H](n4cc(C)c(=O)[nH]c4=O)O[C@@H]3COP(=O)(O)O[C@H]3C[C@H](n4cnc5c(=O)[nH]c(=N)[nH]c54)O[C@@H]3COCO[C@H]3C[C@H](n4cnc5c(=O)nc(N)[nH]c54)O[C@@H]3COP(=O)(O)O)O2)c(=O)[nH]c1=O,0.9
5,Cc1cn([C@H]2C[C@H](OCOC[C@H]3O[C@@H](n4cc(C)c(=O)[nH]c4=O)C[C@@H]3OP(=O)(O)OC[C@H]3O[C@@H](n4cnc5c(=O)nc(N)[nH]c54)C[C@@H]3OP(=O)(O)OC[C@H]3O[C@@H](n4cnc5c(=O)[nH]c(=N)[nH]c54)C[C@@H]3OP(=O)(O)OC[C@H]3O[C@@H](n4cc(C)c(=O)[nH]c4=O)C[C@@H]3OP(=O)(O)OC[C@H]3O[C@@H](n4cnc5c(=O)[nH]c(=N)[nH]c54)C[C@@H]3OP(=O)(O)OC[C@H]3O[C@@H](n4cc(C)c(=O)[nH]c4=O)C[C@@H]3OP(=O)(O)OC[C@H]3O[C@@H](n4cnc5c(=O)nc(N)[nH]c54)C[C@@H]3OP(=O)(O)OC[C@H]3O[C@@H](n4cnc5c(=O)[nH]c(=N)[nH]c54)C[C@@H]3OP(=O)(O)OC[C@H]3O[C@@H](n4cc(C)c(=O)[nH]c4=O)C[C@@H]3OCOC[C@H]3O[C@@H](n4cc(C)c(=O)[nH]c4=O)C[C@@H]3OP(=O)(O)OC[C@H]3O[C@@H](n4cnc5c(=O)[nH]c(=N)[nH]c54)C[C@@H]3OP(=O)(O)OC[C@H]3O[C@@H](n4cnc5c(=O)nc(N)[nH]c54)C[C@@H]3O)[C@@H](COP(=O)(O)O[C@H]3C[C@H](n4cnc5c(=O)[nH]c(=N)[nH]c54)O[C@@H]3COP(=O)(O)O[C@H]3C[C@H](n4cnc5c(=O)nc(N)[nH]c54)O[C@@H]3COP(=O)(O)O)O2)c(=O)[nH]c1=O,1.1

# Continued, values first:
row,Relative PT,Compound
1,0.9,Cc1cn([C@H]2C[C@H](OP(=O)(O)OC[C@H]3O[C@@H](n4cc(C)c(=O)[nH]c4=O)C[C@@H]3OP(=O)(O)OC[C@H]3O[C@@H](n4cnc5c(=O)nc(N)[nH]c54)C[C@@H]3OP(=O)(O)OC[C@H]3O[C@@H](n4cnc5c(=O)[nH]c(=N)[nH]c54)C[C@@H]3OP(=O)(O)OC[C@H]3O[C@@H](n4cc(C)c(=O)[nH]c4=O)C[C@@H]3OP(=O)(O)OC[C@H]3O[C@@H](n4cnc5c(=O)[nH]c(=N)[nH]c54)C[C@@H]3OP(=O)(O)OC[C@H]3O[C@@H](n4cc(C)c(=O)[nH]c4=O)C[C@@H]3OP(=O)(O)OC[C@H]3O[C@@H](n4cnc5c(=O)nc(N)[nH]c54)C[C@@H]3OP(=O)(O)OC[C@H]3O[C@@H](n4cnc5c(=O)[nH]c(=N)[nH]c54)C[C@@H]3OP(=O)(O)OC[C@H]3O[C@@H](n4cc(C)c(=O)[nH]c4=O)C[C@@H]3OP(=O)(O)OC[C@H]3O[C@@H](n4cc(C)c(=O)[nH]c4=O)C[C@@H]3OP(=O)(O)OC[C@H]3O[C@@H](n4cnc5c(=O)[nH]c(=N)[nH]c54)C[C@@H]3OP(=O)(O)OC[C@H]3O[C@@H](n4cnc5c(=O)nc(N)[nH]c54)C[C@@H]3O)[C@@H](COCO[C@H]3C[C@H](n4cnc5c(=O)nc(N)[nH]c54)O[C@@H]3COP(=O)(O)O[C@H]3C[C@H](n4cnc5c(=O)nc(N)[nH]c54)O[C@@H]3COP(=O)(O)O)O2)c(=O)[nH]c1=O
2,0.8,Cc1cn([C@H]2C[C@H](OP(=O)(O)OC[C@H]3O[C@@H](n4cnc5c(=O)nc(N)[nH]c54)C[C@@H]3OCOC[C@H]3O[C@@H](n4cnc5c(=O)[nH]c(=N)[nH]c54)C[C@@H]3OP(=O)(O)OC[C@H]3O[C@@H](n4cc(C)c(=O)[nH]c4=O)C[C@@H]3OP(=O)(O)OC[C@H]3O[C@@H](n4cnc5c(=O)nc(N)[nH]c54)C[C@@H]3OP(=O)(O)OC[C@H]3O[C@@H](n4cc(C)c(=O)[nH]c4=O)C[C@@H]3OP(=O)(O)OC[C@H]3O[C@@H](n4cnc5c(=O)nc(N)[nH]c54)C[C@@H]3OP(=O)(O)OC[C@H]3O[C@@H](n4cnc5c(=O)[nH]c(=N)[nH]c54)C[C@@H]3OP(=O)(O)OC[C@H]3O[C@@H](n4cc(C)c(=O)[nH]c4=O)C[C@@H]3OP(=O)(O)OC[C@H]3O[C@@H](n4cc(C)c(=O)[nH]c4=O)C[C@@H]3OP(=O)(O)OC[C@H]3O[C@@H](n4cnc5c(=O)[nH]c(=N)[nH]c54)C[C@@H]3OP(=O)(O)OC[C@H]3O[C@@H](n4cnc5c(=O)nc(N)[nH]c54)C[C@@H]3O)[C@@H](COP(=O)(O)O[C@H]3C[C@H](n4cc(C)c(=O)[nH]c4=O)O[C@@H]3COP(=O)(O)O[C@H]3C[C@H](n4cnc5c(=O)[nH]c(=N)[nH]c54)O[C@@H]3COP(=O)(O)O[C@H]3C[C@H](n4cnc5c(=O)nc(N)[nH]c54)O[C@@H]3COP(=O)(O)O)O2)c(=O)[nH]c1=O
